Measurements from patent US11904020B2, “Bicyclic peptide ligands specific for TREM2” (Bicycle Tx Limited, priority 2021, dated 2024).
Where two headings read alike, the source gives them in different places. *1 amine or outer side, *2 acyl side, *3 side chain or, on linkers, in order; H or OH if unused. Where a SMILES comes first, the peptide text is derived from it. Bridges are numbered along the chain shown (N, C = ends). [ ]: non-standard residue; d: D form. TATA = O=C(CC[*:1])N1CN(C(=O)CC[*:2])CN(C(=O)CC[*:3])C1; Phe(4-Me) = Cc1ccc(C[C@H](N)C(=O)O)cc1; 1Nal = N[C@@H](Cc1cccc2ccccc12)C(=O)O; 2Nal = N[C@@H](Cc1ccc2ccccc2c1)C(=O)O; hPhe = N[C@@H](CCc1ccccc1)C(=O)O; NMeA = CN[C@@H](C)C(=O)O

Legend:
[1] = target: TREM2 extracellular domain (ECD) (residues 19-131, C-terminally biotinylated, deglycosylated or glycosylated) (Homo sapiens, UniProt Q9NZC2); assay: biochemical
Procedure: Bio-layer interferometry was performed on an Octet RED384® system (Sartorius) at 25° C. in a buffer containing 50 mM HEPES (pH 7.5), 150 mM NaCl and 0.1% Tween. TREM2 extracellular domain (ECD) (residues 19-131, C-terminally biotinylated, deglycosylated or glycosylated) was loaded onto Superstreptavidin biosensors (SSA, 18-5070, Sartorius) at 0.0125 mg/ml for 300 s. Bicycle peptides (10 mM in DMSO) were dispensed into 384-Well Tilted-Bottom Plates (18-5076, Sartorius) using an Echo liquid handler giving a final DMSO concentration of 0.125% in all wells including control wells. Association of defined concentrations of bicyclic peptide (0-12.5 μM, 1:2 dilutions for 7 points) was recorded over 120 s followed by dissociation in buffer over 120 s. Reference wells containing no bicycle peptides and reference sensors loaded with an unrelated protein (His-tagged MLLT3a) were subjected to the same assay protocol and double reference subtraction was used for processing to account for non-specific binding. Traces were analysed using Octet Software (Version 11.0). Association and dissociation curves were globally fit and the response at equilibrium (Req) plotted against concentration to obtain steady-state KD values.

TREM2 receptor = target: T1, TREM2 receptor (Homo sapiens, UniProt Q9NZC2); assay: pSYK Homogenous Time Resolved Fluorescence (HTRF) assay in iPSC macrophages; type: cell-based
T1 construct: Both parental (TREM2 expressing) and isogenic TREM2 KO iPSC macrophages were plated; endogenous in cells; host or cells: human iPSC-derived macrophages (parental, TREM2 expressing)
T1 sequence (Q9NZC2 19-230): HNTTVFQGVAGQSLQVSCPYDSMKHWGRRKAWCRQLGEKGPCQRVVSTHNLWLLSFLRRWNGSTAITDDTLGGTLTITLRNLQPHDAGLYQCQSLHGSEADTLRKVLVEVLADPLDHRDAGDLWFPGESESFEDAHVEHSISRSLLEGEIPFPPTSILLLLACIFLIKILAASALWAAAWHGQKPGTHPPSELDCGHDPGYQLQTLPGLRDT
Procedure: Quantitative assessment of total and phospho (Tyr 525/526) SYK was performed on iPSC macrophages using CisBio total and phospho-SYK HTRF kits (catalogue numbers 64SYKTPGG and 64SYKY525-PEG respectively). Human iPSC macrophage precursors derived from embryoid bodies were plated in 96 well plates (Perkin Elmer Cell Carrier ultra, black walled plates, #6055800) at a density of 40 k cells per well in 100 μl macrophage media (XVIVO15 (Lonza, #BE04-418F), 1% Penicillin-Streptomycin (Gibco, #15140-122), 1% GlutaMAX™ Supplement (Gibco, #35050-038), 0.1% M-CSF (Invitrogen, #PHC9501)). Cells were grown for 7 days to induce full differentiation to iPSC macrophages. Both parental (TREM2 expressing) and isogenic TREM2 KO iPSC macrophages were plated to test for specificity of peptide binding. Following differentiation, cells were stimulated for 5 mins with either the control TREM2 activating antibody (R&D systems, #AF1828), a human IgG control (R&D systems, #AB-108-C), or a 10 point CRC of bicyclic peptide (serial 2 fold dilutions from a starting concentration of 100 μM). Following stimulation the media was removed, and cells were lysed in 50 μl lysis buffer (supplied with the kit) per well. Cells were incubated in LB3 for 30 mins with shaking at room temperature. Following lysis, 16 μl of sample was removed and added to a white 384 well plate (ProxiPlate-384 Plus (Perkin Elmer, #6008280)) and 4 μl of pre-mixed antibody solution was added to each well of the plate. The plate was incubated overnight at room temperature, and the following day, […] was measured at 665 nm and 620 nm using a Pherastar FSX. The same cell lysate was used to assess total and phosphorylated SYK, to enable the generation of a ratio of phosphorylated SYK in each sample.

[2] = target: TREM2 extracellular domain (ECD); assay: Bio-Layer Interferometry (BLI) direct binding assay, cyno
Procedure: Traces were analysed using Octet Software (Version 11.0).

[3] = Human BLI (Kd; nM) (deglycosylated), Table 4A, deglycosylated human TREM2 ECD, steady-state KD, 25° C.
[4] = human iPSC macrophages, 5 mins stimulation, phospho (Tyr 525/526) SYK, NB = no binding, read-out: pSYK

Row | Structure (SMILES) | Kd [1, 3] [nM] | EC50 (TREM2 receptor; [4]) [nM] | also measured
1 | C[C@H](N)C(=O)N[C@H]1CSCCC(=O)N2CN3CN(C2)C(=O)CCSC[C@H](NC(=O)[C@H](Cc2ccc(O)cc2)NC(=O)[C@H](CCC(=O)O)NC(=O)[C@H](CO)NC1=O)C(=O)N[C@@H](Cc1ccccc1)C(=O)N[C@@H](Cc1c[nH]c2ccccc12)C(=O)N1CCC[C@H]1C(=O)N[C@@H](Cc1ccccc1)C(=O)N[C@@H](Cc1ccc(O)cc1)C(=O)N[C@@H](Cc1c[nH]cn1)C(=O)N[C@H](C(=O)N[C@@H](C)C(N)=O)CSCCC3=O [BCY16054, A-(SEQ ID NO: 1)-A] (H-ACSEYCFWPFYHCA-NH2; linker 2-6-13 via TATA; N-terminus and C-terminus assumed) | 700 | – | Kd ([1]; KD, binding to the human TREM2 extracellular domain in the BLI assay, FIGS. 1A to 1D): ~700 nM; EC50 (TREM2 receptor): 10700 nM; Kd ([2]; Table 4A): 3300 nM
2 | CC(=O)N[C@H]1CSCCC(=O)N2CN3CN(C2)C(=O)CCSC[C@H](NC(=O)[C@H](Cc2ccc(O)cc2)NC(=O)[C@H](CCC(=O)O)NC(=O)[C@H](CO)NC1=O)C(=O)N[C@@H](Cc1ccccc1)C(=O)N[C@@H](Cc1cccc2ccccc12)C(=O)N1CCC[C@H]1C(=O)N[C@@H](Cc1ccccc1)C(=O)N[C@@H](Cc1ccc(O)cc1)C(=O)N[C@@H](C)C(=O)N[C@H](C(N)=O)CSCCC3=O [BCY19294, Ac-(SEQ ID NO: 32)] (Ac-CSEYCF[1Nal]PFYAC-NH2; linker 1-5-12 via TATA) | 1500 | < 3400 | –
3 | CC(=O)N[C@H]1CSCCC(=O)N2CN3CN(C2)C(=O)CCSC[C@H](NC(=O)[C@H](Cc2ccc(O)cc2)NC(=O)[C@H](CCC(=O)O)NC(=O)[C@H](CO)NC1=O)C(=O)N[C@@H](Cc1ccccc1)C(=O)N[C@@H](Cc1ccc2ccccc2c1)C(=O)N1CCC[C@H]1C(=O)N[C@@H](Cc1ccccc1)C(=O)N[C@@H](Cc1ccc(O)cc1)C(=O)N[C@@H](C)C(=O)N[C@H](C(N)=O)CSCCC3=O [BCY19296, Ac-(SEQ ID NO: 33)] (Ac-CSEYCF[2Nal]PFYAC-NH2; linker 1-5-12 via TATA; C-terminus assumed) | 2700 | < 3400 | –
4 | CC(=O)N[C@H]1CSCCC(=O)N2CN3CN(C2)C(=O)CCSC[C@H](NC(=O)[C@H](Cc2ccc(O)cc2)NC(=O)[C@H](CCC(=O)O)NC(=O)[C@H](CO)NC1=O)C(=O)N[C@@H](Cc1ccc(C)cc1)C(=O)N[C@@H](Cc1c[nH]c2ccccc12)C(=O)N1CCC[C@H]1C(=O)N[C@@H](Cc1ccccc1)C(=O)N[C@@H](Cc1ccc(O)cc1)C(=O)N[C@@H](C)C(=O)N[C@H](C(N)=O)CSCCC3=O [BCY19298, Ac-(SEQ ID NO: 30)] (Ac-CSEYC[Phe(4-Me)]WPFYAC-NH2; linker 1-5-12 via TATA; C-terminus assumed) | – | < 3400 | –
5 | CC(=O)N[C@H]1CSCCC(=O)N2CN3CN(C2)C(=O)CCSC[C@H](NC(=O)[C@H](Cc2ccc(O)cc2)NC(=O)[C@H](CCC(=O)O)NC(=O)[C@H](CO)NC1=O)C(=O)N[C@@H](Cc1ccccc1)C(=O)N[C@@H](Cc1c[nH]c2ccccc12)C(=O)N1CCC[C@H]1C(=O)N[C@@H](Cc1ccc(C)cc1)C(=O)N[C@@H](Cc1ccc(O)cc1)C(=O)N[C@@H](C)C(=O)N[C@H](C(N)=O)CSCCC3=O [BCY19299, Ac-(SEQ ID NO: 36)] (Ac-CSEYCFWP[Phe(4-Me)]YAC-NH2; linker 1-5-12 via TATA; C-terminus assumed) | 18000 | > 10000 | –
6 | CC(=O)N[C@H]1CSCCC(=O)N2CN3CN(C2)C(=O)CCSC[C@H](NC(=O)[C@H](Cc2ccc(O)cc2)NC(=O)[C@H](CCC(=O)O)NC(=O)[C@H](CO)NC1=O)C(=O)N[C@@H](Cc1ccccc1)C(=O)N[C@@H](Cc1c[nH]c2ccccc12)C(=O)N1CCC[C@H]1C(=O)N[C@@H](CCc1ccccc1)C(=O)N[C@@H](Cc1ccc(O)cc1)C(=O)N[C@@H](C)C(=O)N[C@H](C(N)=O)CSCCC3=O [BCY19301, Ac-(SEQ ID NO: 35)] (Ac-CSEYCFWP[hPhe]YAC-NH2; linker 1-5-12 via TATA) | – | < 3400 | –
7 | CC(=O)N[C@H]1CSCCC(=O)N2CN3CN(C2)C(=O)CCSC[C@H](NC(=O)[C@H](Cc2ccc(O)cc2)NC(=O)[C@H](CCC(=O)O)NC(=O)[C@H](CO)NC1=O)C(=O)N[C@@H](Cc1ccccc1)C(=O)N[C@@H](Cc1c[nH]c2ccccc12)C(=O)N(C)[C@@H](C)C(=O)N[C@@H](Cc1ccccc1)C(=O)N[C@@H](Cc1ccc(O)cc1)C(=O)N[C@@H](C)C(=O)N[C@H](C(N)=O)CSCCC3=O [BCY19303, Ac-(SEQ ID NO: 34)] (Ac-CSEYCFW[NMeA]FYAC-NH2; linker 1-5-12 via TATA) | – | < 3400 | –
8 | C[C@H](N)C(=O)N[C@H]1CSCCC(=O)N2CN3CN(C2)C(=O)CCSC[C@H](NC(=O)[C@H](Cc2ccc(O)cc2)NC(=O)[C@H](CC(N)=O)NC(=O)[C@H]([C@@H](C)O)NC1=O)C(=O)N[C@@H](Cc1ccccc1)C(=O)N[C@@H](Cc1c[nH]c2ccccc12)C(=O)N1CCC[C@H]1C(=O)N[C@@H](Cc1ccccc1)C(=O)N[C@@H](CCC(N)=O)C(=O)N[C@@H](Cc1ccc(O)cc1)C(=O)N[C@H](C(=O)N[C@@H](C)C(N)=O)CSCCC3=O [BCY19779, A-(SEQ ID NO: 18)-A] (H-ACTNYCFWPFQYCA-NH2; linker 2-6-13 via TATA) | 920 | 2500 | –
9 | CC(C)C[C@@H]1NC(=O)[C@H](Cc2ccc(O)cc2)NC(=O)[C@H](Cc2ccccc2)NC(=O)[C@@H]2CCCN2C(=O)[C@H](Cc2c[nH]c3ccccc23)NC(=O)[C@H](Cc2ccccc2)NC(=O)[C@@H]2CSCCC(=O)N3CN(CN(C3)C(=O)CCSC[C@@H](C(=O)N[C@@H](C)C(N)=O)NC1=O)C(=O)CCSC[C@H](NC(=O)[C@H](C)N)C(=O)N[C@@H]([C@@H](C)O)C(=O)N[C@@H](CC(N)=O)C(=O)N[C@@H](Cc1ccc(O)cc1)C(=O)N2 [BCY19782, A-(SEQ ID NO: 21)-A] (H-ACTNYCFWPFYLCA-NH2; linker 2-6-13 via TATA) | 1400 | 3800 | –
10 | C[C@H](N)C(=O)N[C@H]1CSCCC(=O)N2CN3CN(C2)C(=O)CCSC[C@H](NC(=O)[C@H](Cc2ccc(O)cc2)NC(=O)[C@H](CCC(=O)O)NC(=O)[C@H](CO)NC1=O)C(=O)N[C@@H](Cc1ccccc1)C(=O)N[C@@H](Cc1c[nH]c2ccccc12)C(=O)N1CCC[C@H]1C(=O)N[C@@H](Cc1ccccc1)C(=O)N[C@@H](CCC(N)=O)C(=O)N[C@@H](Cc1ccc(O)cc1)C(=O)N[C@H](C(=O)N[C@@H](C)C(N)=O)CSCCC3=O [BCY19784, A-(SEQ ID NO: 23)-A] (H-ACSEYCFWPFQYCA-NH2; linker 2-6-13 via TATA) | – | 1800 | –
11 | CC(=O)N[C@H]1CSCCC(=O)N2CN3CN(C2)C(=O)CCSC[C@H](NC(=O)[C@H](Cc2ccc(O)cc2)NC(=O)[C@H](CCC(=O)O)NC(=O)[C@H](CO)NC1=O)C(=O)N[C@@H](Cc1ccccc1)C(=O)N[C@@H](Cc1c[nH]c2ccccc12)C(=O)N1CCC[C@H]1C(=O)N[C@@H](Cc1ccccc1)C(=O)N[C@@H](Cc1ccc(O)cc1)C(=O)N[C@@H](Cc1ccccc1)C(=O)N[C@H](C(N)=O)CSCCC3=O [BCY20576, Ac-(SEQ ID NO: 102)] (Ac-CSEYCFWPFYFC-NH2; linker 1-5-12 via TATA) | – | – | Kd ([1]; Human BLI (Kd; nM) (deglycosylated), Table 4B, deglycosylated human TREM2 ECD, steady-state KD, 25° C.): 1350 nM
12 | CC(=O)N[C@H]1CSCCC(=O)N2CN3CN(C2)C(=O)CCSC[C@H](NC(=O)[C@H](Cc2ccc(O)cc2)NC(=O)[C@H](CCC(=O)O)NC(=O)[C@H](CO)NC1=O)C(=O)N[C@@H](Cc1ccccc1)C(=O)N[C@@H](Cc1c[nH]c2ccccc12)C(=O)N1CCC[C@H]1C(=O)N[C@@H](Cc1cccc2ccccc12)C(=O)N[C@@H](Cc1ccc(O)cc1)C(=O)N[C@@H](C)C(=O)N[C@H](C(N)=O)CSCCC3=O [BCY20722, Ac-(SEQ ID NO: 46)] (Ac-CSEYCFWP[1Nal]YAC-NH2; linker 1-5-12 via TATA) | – | – | Kd ([2]; Table 4B): 3600 nM
